Laboratory results reported in patent publication US8592172B2, “Bioluminescent assays using cyanobenzothiazole compounds” (Promega Corporation, priority 2010, dated 2013).

Columns and labels:
[1] = system: CYP1A2; test: Non-lytic cell-based assay with human hepatocytes, compound 3019; details: 100 μM omeprazole 48 hours, 3 μM compound 3019
Procedure: Human cryopreserved hepatocytes (Celsis lot RTM) were thawed and seeded in hepatocyte culture medium in wells of a collagen-coated, 96-well culture plate at ˜70,000 cells per well and kept at 37° C. in standard cell culture incubator with 5% CO2. The cells were then treated for 48 hours with 100 μM omeprazole or vehicle control (0.1% dimethylsulfoxide) dissolved in hepatocytes culture medium (n═3 for each treatment, mean values and standard deviations are shown). […] 50 μl of the KH incubation buffer was then removed from each well and transferred to a well of a white, 96-well luminometer plate (Costar) where it was also combined with 50 μl of P450-Glo LDR containing 6.6 mM D-cysteine.

[2] = system: CYP1A2; test: Multiplex human hepatocyte assay, CYP1A2 detected with compound 3019; assay type: cell-based; details: human hepatocytes, 100 μM omeprazole 48 hours
Procedure: For detection of CYP3A4, the luciferin acetal derivative, Luciferin-IPA (Luc-IPA), was used with bioluminescence detected using LDR without D-cysteine.
Human cryopreserved hepatocytes (Celsis In Vitro Technologies) were thawed and seeded in hepatocyte culture medium in wells of a collagen-coated, 96-well culture plate at ˜50,000 cells per well and kept at 37° C. in standard cell culture incubator with 5% CO2. […] The plate was then removed from the incubator. Fifty μl from each intact cell supernatant was transferred to two-set wells of a white, 96-well luminometer plate (Costar). To one set of wells, 50 μl of LDR with 4 mM D-cysteine was added, while 50 μl of LDR without D-cysteine was added to the other set.

change of signal versus vehicle (CYP1A2 induction) [1]: significantly increased | induction of CYP1A2 activity ([2]; compound 3019 alone (FIG. 34A)): induction of CYP1A2 activity | induction of CYP1A2 activity ([2]; compound 3019 in the presence of Luciferin-IPA (FIG. 34C)): induction of CYP1A2 activity
SMILES: COc1ccc2[nH]c([S+]([O-])Cc3ncc(C)c(OC)c3C)nc2c1 (stereo not drawn) [omeprazole]
